In paper PMC2949076 (Journal of clinical immunology, 2010):
Values joined by “and” are separate entries in the source; they are usually repeats but may differ in a detail not shown here. Equal values may be shown once.

How the values were obtained:
[1] = system: CD8+ T cells in PBMC; assay: Granzyme B and perforin detection by flow cytometry; assay type: cell-based, human
[2] = system: CD8+ T cells in PBMC; assay type: cell-based, human

staphylococcal enterotoxin B [SEB]
CD8+ T cells lacking granule proteins [1]: 58% and 44.5–70.9%
CD107a mobilization, monofunctional vs polyfunctional cells [2]: increases were observed
IFN-γ-level change in polyfunctional cells [2]: increases in IFN-γ observed
